We go through four compounds from patent US10285983B2, “3-(1H-pyrrolo[2,3-B]pyridin-2-yl)-1H-pyrazolo[3,4-B] pyridines and therapeutic uses thereof” (Samumed, LLC, priority 2015, dated 2019).

Holding throughout (type): cell-based
Assay [1] deals with Wnt activity (Sp5-Luc reporter, SW480 colon carcinoma cells). As to the kind of experiment: Wnt activity screening assay, Sp5-Luc reporter gene in SW480 cells. The settings on record: Homo sapiens; for inhibition at 10 µM: given for EC50 >10 μM, read-out: percent inhibition at 10 μM; for pEC50: overnight incubation. The source says: The screening assay for Wnt activity is described as follows. Reporter cell lines can be generated by stably transducing cancer cell lines (e.g., colon cancer) or primary cells (e.g., IEC-6 intestinal cells) with a lentiviral construct that includes a Wnt-responsive promoter driving expression of the firefly luciferase gene.
SW480 colon carcinoma cells were transduced with a lentiviral vector expressing luciferase with a human Sp5 promoter consisting of a sequence of eight TCF/LEF binding sites. SW480 cells stably expressing the Sp5-Luc reporter gene and a hygromycin resistance gene were selected by treatment with 150 μg/mL of hygromycin for 7 days. These stably transduced SW480 cells were expanded in cell culture and used for all further screening activities. Each compound was dissolved in DMSO as a 10 mM stock and used to prepare compound source plates. Serial dilution (1:3, 10-point dose-response curves starting from 10 μM) and compound transfer was performed using the ECHO 550 (Labcyte, Sunnyvale, Calif.) into 384-well white solid bottom assay plates (Greiner Bio-One) with appropriate DMSO backfill for a final DMSO concentration of 0.1%. For Sp5-Luc reporter gene assays, the cells were plated at 4,000 cells/well in 384-well plates with medium containing 1% fetal bovine serum and incubated overnight at 37° C. and 5% CO2. Following incubation, 20 μl of BrightGlo luminescence reagent (Promega) was added to each well of the 384-well assay plates. The plates were placed on an orbital shaker for 2 min and then luminescence was quantified using the Envision (Perkin Elmer) plate reader. Readings were normalized to DMSO only treated cells, and normalized activities were utilized for EC50 calculations using the dose-response log (inhibitor) vs. response—variable slope (four parameters) nonlinear regression feature available in GraphPad Prism 5.0 (or Dotmatics). For EC50 of >10 μM, the percent inhibition at 10 μM is provided.

The test system of a further assay is SW480 colon cancer cells. The assay can be described thus: Cell viability assay (CellTiter-Blue). The settings on record: Homo sapiens, 96 h, four days; for inhibition at 10 µM: given for EC50 >10 μM, read-out: percent inhibition at 10 μM. The method, then:
Representative compounds were screened using the following assay procedure to assess the effect on cell viability as described below.
Each compound was dissolved in DMSO as a 10 mM stock and used to prepare compound source plates. Serial dilution (1:3, 8-point dose-response curves from 10 μM to 0.0045 μM) and compound transfer was performed using the ECHO 550 (Labcyte, Sunnyvale, Calif.) into 96-well clear bottom, black-walled plates (Corning-Costar).
Approximately 2×10^3 SW480 colon cancer cells were seeded into each well and allowed to incubate in the presence or absence of compound for four days at 37° C./5% CO2. Eight replicates of DMSO-treated cells served as controls and cells treated with compound were performed in duplicate.
After incubation, 20 μL of CellTiter-Blue (Promega) was added to each well allowed to incubate for approximately 3 hours. This reagent was a buffered solution which contains resazurin, metabolically active cells were able to reduce rezarurin (blue) into resorufin (pink) which was highly fluorescent. This measured fluorescence was used as a readout for cell viability.
After incubation, the plates were read at Ex 560 nm Em 590 nm (Cytation 3, BioTek). Dose-response curves were generated and EC50 concentration values were calculated using non-linear regression curve fit in the GraphPad Prism (San Diego, Calif.) or Dotmatics' Studies Software (Bishops Stortford, UK). For EC50 of >10 μM, the percent inhibition at 10 μM is provided.

For assay [2], the system named is IL-6 (THP-1 human monocyte cell line). As to the kind of experiment: IL-6 inhibition in LPS-stimulated THP-1 cells (HTRF). Particulars: LPS 500 ng/mL, 22 hours, IL6 HTRF. The method, then: Human monocyte cell line (THP-1 cells; Catalog # TIB-202, ATCC, Manassas, Va.) were cultured in Roswell Park Memorial Institute (RPMI) 1640 Medium (Catalog #21870-100, Buffalo, N.Y.) with 1% L-glutamine, 1% HEPES, 1% Sodium Pyruvate, 2% Sodium Bicarbonate supplemented with 100 units/mL penicillin, 50 μg/mL streptomycin, 2-mercaptoethanol (0.05 mM) [basal medium] and 10% fetal bovine serum (Catalog #16140089, Life Technologies, Carlsbad, Calif.) at 37° C. and 5% CO2.
THP-1 cells were cultured in basal media with 1% FBS for 24 hours before the start of the assay. Each compound was dissolved in DMSO as a 10 mM stock and used to prepare compound source plates. Serial dilution (1:3, 10-point dose-response curves starting from […]) and compound transfer was performed using the ECHO 550 (Labcyte, Sunnyvale, Calif.) into 384-well white low volume assay plates (Greiner Bio-One) with appropriate DMSO backfill for a final DMSO concentration of 0.1%. THP-1 cells were plated at 5000 cells/well in the 384-well plates and incubated at 37° C. for 2 h. 500 ng/mL of LPS was added after 2 hours and cells were incubated for another 22 hours at 37° C. Plates were spun in a centrifuge for 1 minute at 10,000 rpm and a mixture of anti-IL6 XL665, and anti-IL6 Cryptate diluted in reconstitution buffer (Cisbio Inc.) was added to each well. Following incubation for 3 hrs at room temperature, Homogeneous Time-Resolved Fluorescence (HTRF) was measured using the Envision (Perkin Elmer) at 665 nm and […]. The ratio of fluorescence at 665 nm to 620 nm was used as a readout for IL6 quantification. All samples were processed in duplicate. Readings were normalized to DMSO treated cells and normalized activities were utilized for EC50 calculations using the dose-response log (inhibitor) vs. response—variable slope (four parameters) nonlinear regression feature available in GraphPad Prism 5.0 (or Dotmatics). For EC50 of >10 μM, the percent inhibition at 10 μM is provided.
Background: Time-resolved FRET reads energy transfer from a long-lived donor to a nearby acceptor.

For assay [3], the system named is primary human fibroblasts derived from IPF patients (LL29 cells). As to the kind of experiment: Inhibition of fibrotic process, αSMA staining in TGF-β1 treated LL29 fibroblasts. Particulars: Fibroblast, 96 h, TGF-β1 20 ng/mL, 4 days; for pEC50: % αSMA positive cells. The source says:
Representative compounds were screened using primary human fibroblasts (derived from IPF patients) treated with TGF-β1 to determine their ability to inhibit the fibrotic process.
Primary human fibroblasts derived from IPF patients (LL29 cells) [^1Xiaoqiu Liu, et. al., “Fibrotic Lung Fibroblasts Show Blunted Inhibition by cAMP Due to Deficient cAMP Response Element-Binding Protein Phosphorylation”, Journal of Pharmacology and Experimental Therapeutics (2005), 315(2), 678-687; ^2Watts, K. L., et. al., “RhoA signaling modulates cyclin D1 expression in human lung fibroblasts; implications for idiopathic pulmonary fibrosis”, Respiratory Research (2006), 7(1), 88] were obtained from American Type Culture Collection (ATCC) and expanded in F12 medium supplemented with 15% Fetal Bovine Serum and Penicillin/Streptomycin.
Each compound was dissolved in DMSO as a 10 mM stock and used to prepare compound source plates. Serial dilution (1:2, 11-point dose-response curves from […] to […]) and compound transfer was performed using the ECHO 550 (Labcyte, Sunnyvale, Calif.) into 384-well clear bottom assay plates (Greiner Bio-One) with appropriate DMSO backfill for a final DMSO concentration of 0.1%. LL29 cells are plated at 1,500 cells/well in 80 μL/well F12 medium supplemented with 1% Fetal Bovine Serum. One hour after addition of the cells, TGF-β1 (Peprotech; 20 ng/mL) was added to the plates to induce fibrosis (ref. 1 and 2 above). Wells treated with TGF-β1 and containing DMSO were used as controls. Cells were incubated at 37° C. and 5% CO2 for 4 days. Following incubation for 4 days, SYTOX green nucleic acid stain (Life Technologies [Thermo Fisher Scientific]) was added to the wells at a final concentration of 1 μM and incubated at room temperature for 30 min. Cells were then fixed using 4% formaldehyde (Electron Microscopy Sciences), washed 3 times with PBS followed by blocking and permeabilization using 3% Bovine Serum Albumin (BSA; Sigma) and 0.3% Triton X-100 (Sigma) in PBS. Cells were then stained with antibody specific to α-smooth muscle actin (αSMA; Abcam) (ref. 1 and 2 above) in 3% Bovine Serum Albumin (BSA; Sigma) and 0.3% Triton X-100 (Sigma) in PBS, and incubated overnight at 4° C. Cells were then washed 3 times with PBS, followed by incubation with Alexa Flor-647 conjugated secondary antibody (Life Technologies [Thermo Fisher Scientific]) and DAPI at room temperature for 1 hour. Cells were then washed 3 times with PBS and plates were sealed for imaging. αSMA staining was imaged by excitation at 630 nm and emission at 665 nm and quantified using the Compartmental Analysis program on the CellInsight CX5 (Thermo Scientific). Dead or apoptotic cells were excluded from analysis based on positive SYTOX green staining. % of total cells positive for αSMA were counted in each well and normalized to the average of 11 wells treated with TGF-β1 on the same plate using Dotmatics' Studies Software. The normalized averages (fold change over untreated) of 3 replicate wells for each compound concentration were used to create dose-responses curves and EC50 values were calculated using non-linear regression curve fit in the Dotmatics' Studies Software. For EC50 of >10 μM, the percent inhibition at 10 μM is provided.

pEC50: −log10 of the molar value.

A word on the inhibition: it is how much of the control response was suppressed. The term pEC50 denotes the negative decadic logarithm of the EC50, by convention in mol/L. Low values mean a large EC50, high ones a small EC50. Regarding `Fc1cccc(-c2ccnc3[nH]c(-c4n[nH]c5ncc(-c6cncc(CNCc7ccccc7)c6)cc45)cc23)c1` [Compound 24, N-Benzyl-1-(5-(3-(4-(3-fluorophenyl)-1H-pyrrolo[2,3-b]pyridin-2-yl)-1H-pyrazolo[3,4-b]pyridin-5-yl)pyridin-3-yl)methanamine], the inhibition at 10 µM in assay [1] was found to be 25.8%. For the same compound, the pEC50 was less than 5.00 in assay [1], 5.61 in the assay with SW480 colon cancer cells, 5.38 in assay [2] and 5.98 in assay [3].
Consider `CC(C)(C)C(=O)Nc1cncc(-c2cnc3[nH]nc(-c4cc5c(-c6ccc(F)cc6)ccnc5[nH]4)c3c2)c1` [Compound 36, N-(5-(3-(4-(4-Fluorophenyl)-1H-pyrrolo[2,3-b]pyridin-2-yl)-1H-pyrazolo [3,4-b]pyridin-5-yl)pyridin-3-yl)pivalamide], for which the inhibition at 10 µM was 12.7% in assay [1]; 11.9% in the assay on SW480 colon cancer cells; 33.9% in assay [3] (given for EC50 >10 μM, read-out: percent inhibition at 10 μM). Moreover, the pEC50 (in assay [1]; with SW480 colon cancer cells; in assay [3]) was less than 5.00 in each case.
For `O=C(Nc1cncc(-c2cnc3[nH]nc(-c4cc5c(N6CCCCC6)ccnc5[nH]4)c3c2)c1)C1CC1` [Compound 188, N-(5-(3-(4-(Piperidin-1-yl)-1H-pyrrolo[2,3-b]pyridin-2-yl)-1H-pyrazolo[3,4-b]pyridin-5-yl)pyridin-3-yl)cyclopropanecarboxamide], the pEC50 was 5.48 in assay [1], less than 5.00 in the assay with SW480 colon cancer cells, 6.46 in assay [2] and 5.75 in assay [3]. Besides, the inhibition at 10 µM in the assay on SW480 colon cancer cells is 40.8%.
For `c1cc(N2CCCCC2)c2cc(-c3n[nH]c4ncc(C5CCNCC5)cc34)[nH]c2n1` [Compound 601, 3-(4-(Piperidin-1-yl)-1H-pyrrolo[2,3-b]pyridin-2-yl)-5-(piperidin-4-yl)-1H-pyrazolo[3,4-b]pyridine], the inhibition at 10 µM in assay [1] is 36.6%. Further, the pEC50 in assay [1] was less than 5.00; with SW480 colon cancer cells, 5.27; in assay [2], 5.41; in assay [3], 5.02.
